Several values for one entry are separate records, joined by “and”; a condition that tells them apart may be missing. Identical values can stand only once. Like-named read-outs stand apart in the source and are kept apart here. Numbered stars: 1 amine (or outer) side, 2 acyl side, 3 side chain; on linkers, the order of the positions; unused ones are H or OH. Square brackets hold non-standard residues; d marks the D form. Peptide text beside a SMILES is read from it. * marks the point of attachment. ξ: configuration not given here. Gly(1-amidinopiperidin-4-yl) = N=C(N)N1CCC([C@H](N)C(=O)O)CC1; X1 = CC(C)c1oc([C@H](CO)N[*:1])nc1C(=O)[*:2]; Pro(3R-Ph) = O=C(O)[C@H]1NCC[C@@H]1c1ccccc1; Tic = O=C(O)[C@@H]1Cc2ccccc2CN1; Cha = N[C@@H](CC1CCCCC1)C(=O)O; NMe(benzyl) = CN(Cc1ccccc1)*; ξDisc = O=C(O)C1NCc2ccccc21; Nle = CCCC[C@H](N)C(=O)O; X2 = OCCOCCN(Cc1ccccc1)*

The target in series [1] is T1, Priess (DR4Dw4: DRA1*0101 DRB1*0401) cells (Homo sapiens, UniProt P01903+P01911, A100K/A169T/F76Y/I96L/K127E/L162R/M171V/N62H/P40V/Q125Y/R42H/S133A/S149N/S66Y/V115G/V209L/W38E).
T1 construct: MHC II Proteins Expressed on PRIESS and LG2 Cells; endogenous in cells; host or cells: Priess cells
The series can be described thus: Competitive binding to MHC II proteins expressed on Priess cells. Type of series: cell-based. The method, then: (§1) For use in the binding assay the cells were re-suspended in medium containing 1% FCS at a density of 2.5×10^6 cells/ml.
(§2) The assay was performed in sterile 96 well polystyrene microtiter plates. A 10 fold dilution series of compounds (16 nM-1615 μM) in 1% FCS was prepared from 5 or 10 mM compound stock solutions in 10% DMSO/water. 50 μl of each compound dilution were added in duplicates to 50 μl of a 16 μM solution of indicator peptide in 1% FCS. Cell binding was initiated by adding 100 μl of 2.5×10^6 cells/ml 1% FCS to each well. Controls were included containing the DMSO concentration present in the solution with the highest compound concentration. The cells were incubated at 37° C., 6% CO2. After 4 hours the cells were washed with 200 μl PBS and lysed in 200 μl lysis buffer (50 mM sodium phosphate, 150 mM sodium chloride, 1% (w/v) NP-40, 25 mM iodoacetamide, 1 mM PMSF, 3.1% protease inhibitor cocktail: 0.32 g/l of Chymostatin, Antipain, Pepstatin A, Soybean trypsin inhibitor and Leupeptin each, pH 7.5) for 10 min.
(§3) After washing with PBS, 190 μl of cell lysate were transferred to the appropriate wells of the capture plate and incubated for 2 h at 4° C. The wells were washed six times with 200 μl/well cooled (4 to 8° C.) of 1×DELFIA wash (Wallac-ADL-GmbH, Freiburg), incubated with 100 μl of cooled Europium-streptavidin conjugate (Wallac-ADL-GmbH, Freiburg; diluted 1/1000 with DELFIA assay buffer) for 30 minutes at 4° C., again washed six times with cooled 1×DELFIA wash and, finally, incubated with 200 μl cooled DELFIA enhancement solution (Wallac-ADL-GmbH, Freiburg) for one hour at room temperature before reading the time-resolved europium fluorescence at λex Eu^3+: 340 nm and λem Eu^3+: 613 (615) nm (Wallac Victor^2 1420 Multilabel Counter, Wallac-ADL-GmbH, Freiburg).

Series [2] addresses T2, LG2 (DR1: DRA1*0101 DRB1*0101) cells (Homo sapiens, UniProt P01903+P01911, A100R/D57E/F55L/F60I/F76Y/I96L/L162R/M171V/P40L/Q125E/R42F/V115G/Y59C).
T2 construct: MHC II Proteins Expressed on PRIESS and LG2 Cells; endogenous in cells; host or cells: LG2 cells
In words: Competitive binding to MHC II proteins expressed on LG2 cells. The format is cell-based. As to conditions: LG2 (0101). How it is done:
as §1, §2, §3

The nature of series [3]: Stability of compounds in rat blood plasma. The format is in vitro ADME. In short, it runs like this:
(§4)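 Compounds at 5 μM final in rat, mouse or human plasma, incubated at 37 °C and sampled at 0, 6 and 24 h. Proteins precipitated with acetonitrile and the supernatant dried and reconstituted in 50% acetonitrile/0.1% TFA. PBS controls run for unstable compounds.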

A short description of series [4]: Stability of compounds in mouse blood plasma. The format is in vitro ADME. The essentials:
as §4

The nature of series [5]: Stability of compounds in human blood plasma. Type of series: in vitro ADME. The essentials: as §4
Series [6] addresses Cathepsin D (EC 3.4.23.5 from bovine spleen) (Bos taurus, UniProt P80209).
The mark [7] stands for this setting: Cell binding IC50 (uM) LG2 (0101).

Broadly, the IC50 is the point on the concentration scale where inhibition reaches its midpoint. In the case of `CCCC[C@H](NC(=O)C1c2ccccc2CN1C(=O)[C@@H](NC(=O)[C@H](CC1CCCCC1)NC(C)=O)C1CCN(C(=N)N)CC1)C(=O)N(C)Cc1ccccc1` (single isomer, unassigned) [Compound P76-1, Ac-Cha-Gpg-Disc-Nle-N(Me)Bn], in series [1] (read-out: Cell binding IC50 (uM) Priess (0401), Priess (0401)), the 50% inhibitory concentration (IC50) worked out at 9.8 µM. In addition, in series [2] (read-out: Cell binding IC50 (uM) LG2 (0101)), the IC50 came out at 4.6 µM. In addition, in series [3], the “Stability (Arbitrary units) Rat 6 h” value is reported as 80 Arbitrary units and the “Stability (Arbitrary units) Rat 24 h” value is 84 Arbitrary units. In series [4], the “Stability (Arbitrary units) Mouse 6 h” value worked out at 93 Arbitrary units and the “Stability (Arbitrary units) Mouse 24 h” value was determined as 16 Arbitrary units. Further, in series [5], the “Stability (Arbitrary units) Human 6 h” value is reported as 93 Arbitrary units and the “Stability (Arbitrary units) Human 24 h” value came to 107 Arbitrary units. The “Stability (Arbitrary units) Cath D 4 h” value in series [6] is listed as 104 Arbitrary units.

In turn, `CCCC[C@H](NC(=O)C1c2ccccc2CN1C(=O)[C@@H](NC(=O)[C@H](CC1CCCCC1)NC(C)=O)C1CCN(C(=N)N)CC1)C(=O)N(C)Cc1ccccc1` (single isomer, unassigned) [Compound P78-1] came in with a half-maximal inhibitory concentration (IC50) in series [1] of 9.8 µM. Moreover, the half-maximal inhibitory concentration (IC50) in series [2] (setting [7]) was found to be 4.6 µM. In series [3], the “Stability (Arbitrary units) Rat 6 h” value is reported as 80 Arbitrary units and the “Stability (Arbitrary units) Rat 24 h” value came out at 84 Arbitrary units. Besides, in series [4], the “Stability (Arbitrary units) Mouse 6 h” value amounted to 93 Arbitrary units and the “Stability (Arbitrary units) Mouse 24 h” value is reported as 18 Arbitrary units. Further, in series [5], the “Stability (Arbitrary units) Human 6 h” value is recorded as 93 Arbitrary units and the “Stability (Arbitrary units) Human 24 h” value worked out at 107 Arbitrary units. Further, the “Stability (Arbitrary units) Cath D 4 h” value in series [6] worked out at 104 Arbitrary units.

As for `CSCC[C@H](NC(=O)[C@@H]1Cc2ccccc2CN1C(=O)[C@H](CCCNC(=N)N)NC(=O)[C@H](CC1CCCCC1)NC(C)=O)C(N)=O` [Compound P1, Ac-Cha-Arg-Tic-Met-NH2] (Ac-[Cha]R[Tic]M-NH2), the IC50 is 11 µM in series [1]; 8.8 µM and 6.8 µM in series [2] (setting [7]). For the same compound, the “Stability (Arbitrary units) Rat 6 h” value in series [3] came to 11 Arbitrary units. For the same compound, in series [3], the “Stability (Arbitrary units) Rat 24 h” value is reported as 0 Arbitrary units. For the same compound, the “Stability (Arbitrary units) Mouse 24 h” value in series [4] was determined as 5 Arbitrary units. Further, the “Stability (Arbitrary units) Human 6 h” value in series [5] is on record as 94 Arbitrary units. For the same compound, the “Stability (Arbitrary units) Cath D 4 h” value in series [6] is on record as 102 Arbitrary units.

On to `CSCC[C@H](NC(=O)C1c2ccccc2CN1C(=O)[C@H](CCCNC(=N)N)NC(=O)[C@H](CC1CCCCC1)NC(C)=O)C(N)=O` (stereo partly drawn) [Compound P12-1, Ac-Cha-Arg-Disc-Met-NH2] (Ac-[Cha]R[ξDisc]M-NH2), for which the IC50 in series [1] was found to be 6.7 µM. For the same compound, in series [2] (setting [7]), the IC50 was found to be 9.6 µM. In series [3], the “Stability (Arbitrary units) Rat 6 h” value is 67 Arbitrary units and the “Stability (Arbitrary units) Rat 24 h” value is 10 Arbitrary units. In addition, in series [4], the “Stability (Arbitrary units) Mouse 6 h” value stood at 76 Arbitrary units and the “Stability (Arbitrary units) Mouse 24 h” value came out at 38 Arbitrary units. In series [5], the “Stability (Arbitrary units) Human 6 h” value was determined as 75 Arbitrary units and the “Stability (Arbitrary units) Human 24 h” value turned out to be 0 Arbitrary units. Also, the “Stability (Arbitrary units) Cath D 4 h” value in series [6] came out at 103 Arbitrary units.

`CSCC[C@H](NC(=O)[C@@H]1Cc2ccccc2CN1C(=O)[C@H](CCCNC(=N)N)NC(=O)[C@H](CC1CCCCC1)NC(C)=O)C(=O)N1CC[C@H](c2ccccc2)[C@H]1C(N)=O` [Compound P31, Ac-Cha-Arg-Tic-Met-βPhPro-NH2] (Ac-[Cha]R[Tic]M[Pro(3R-Ph)]-NH2) had an IC50 in series [1] of 3.7 µM. For the same compound, in series [2] (setting [7]), the IC50 worked out at 8.5 µM. In series [3], the “Stability (Arbitrary units) Rat 6 h” value worked out at 42 Arbitrary units and the “Stability (Arbitrary units) Rat 24 h” value worked out at 5 Arbitrary units. Moreover, in series [4], the “Stability (Arbitrary units) Mouse 6 h” value stood at 86 Arbitrary units and the “Stability (Arbitrary units) Mouse 24 h” value is 56 Arbitrary units. For the same compound, in series [5], the “Stability (Arbitrary units) Human 6 h” value came to 93 Arbitrary units and the “Stability (Arbitrary units) Human 24 h” value is given as 86 Arbitrary units. The “Stability (Arbitrary units) Cath D 4 h” value in series [6] stood at 95 Arbitrary units.

Take `CCCC[C@H](NC(=O)[C@@H]1Cc2ccccc2CN1C(=O)[C@H](CCCNC(=N)N)NC(=O)[C@H](CC1CCCCC1)NC(C)=O)C(=O)N1CC[C@H](c2ccccc2)[C@H]1C(=O)N[C@@H](CO)c1nc(C(=O)N(C)C)c(C(C)C)o1` [Compound P51, Ac-Cha-Arg-Tic-Nle-βPhPro-[S(oxaz)L]-NMe2] (Ac-[Cha]R[Tic][Nle][Pro(3R-Ph)][X1]-NMe2): the IC50 in series [2] (setting [7]) was 3 µM. In series [3], the “Stability (Arbitrary units) Rat 6 h” value is 81 Arbitrary units and the “Stability (Arbitrary units) Rat 24 h” value worked out at 60 Arbitrary units. For the same compound, the “Stability (Arbitrary units) Mouse 24 h” value in series [4] came out at 136 Arbitrary units. For the same compound, in series [5], the “Stability (Arbitrary units) Human 6 h” value was 119 Arbitrary units and the “Stability (Arbitrary units) Human 24 h” value worked out at 129 Arbitrary units. For the same compound, the “Stability (Arbitrary units) Cath D 4 h” value in series [6] came to 103 Arbitrary units.

Take `CCCC[C@H](NC(=O)[C@@H]1Cc2ccccc2CN1C(=O)[C@H](CCCNC(=N)N)NC(=O)[C@H](CC1CCCCC1)NC(C)=O)C(=O)N(C)Cc1ccccc1` [Compound P71, Ac-Cha-Arg-Tic-Nle-N(Me)Bn] (Ac-[Cha]R[Tic][Nle]-{NMe(benzyl)}): in series [3], the “Stability (Arbitrary units) Rat 6 h” value is given as 89 Arbitrary units and the “Stability (Arbitrary units) Rat 24 h” value is 53 Arbitrary units. In series [4], the “Stability (Arbitrary units) Mouse 6 h” value is recorded as 117 Arbitrary units. Further, in series [5], the “Stability (Arbitrary units) Human 6 h” value is listed as 107 Arbitrary units and the “Stability (Arbitrary units) Human 24 h” value was determined as 90 Arbitrary units. In series [6], the “Stability (Arbitrary units) Cath D 4 h” value came to 104 Arbitrary units.

Turning to `CCCC[C@H](NC(=O)[C@@H]1Cc2ccccc2CN1C(=O)[C@@H](NC(=O)[C@H](CC1CCCCC1)NC(C)=O)C1CCN(C(=N)N)CC1)C(=O)N(CCOCCO)Cc1ccccc1` [Compound P101, Ac-Cha-Gpg-Tic-Nle-N(Bn)CH2CH2OCH2CH2OH] (Ac-[Cha][Gly(1-amidinopiperidin-4-yl)][Tic][Nle]-X2), in series [3], the “Stability (Arbitrary units) Rat 6 h” value is 73 Arbitrary units and the “Stability (Arbitrary units) Rat 24 h” value is reported as 81 Arbitrary units. In addition, in series [4], the “Stability (Arbitrary units) Mouse 6 h” value was determined as 107 Arbitrary units and the “Stability (Arbitrary units) Mouse 24 h” value is on record as 94 Arbitrary units. For the same compound, the “Stability (Arbitrary units) Human 24 h” value in series [5] is reported as 107 Arbitrary units. For the same compound, in series [5] (human plasma, 6 h), the “Stability (Arbitrary units) Human 6 h” value was 106 Arbitrary units. Further, the “Stability (Arbitrary units) Cath D 4 h” value in series [6] came out at 106 Arbitrary units.

As to `CSCC[C@H](NC(=O)[C@@H]1Cc2ccccc2CN1C(=O)[C@@H](NC(=O)[C@H](CC1CCCCC1)NC(C)=O)C1CCN(C(=N)N)CC1)C(=O)N(CCOCCO)Cc1ccccc1` [Compound P102, Ac-Cha-Gpg-Tic-Met-N(Bn)CH2CH2OCH2CH2OH] (Ac-[Cha][Gly(1-amidinopiperidin-4-yl)][Tic]M-X2), in series [3], the “Stability (Arbitrary units) Rat 6 h” value is on record as 131 Arbitrary units and the “Stability (Arbitrary units) Rat 24 h” value stood at 121 Arbitrary units. In addition, in series [4], the “Stability (Arbitrary units) Mouse 6 h” value was 105 Arbitrary units and the “Stability (Arbitrary units) Mouse 24 h” value is 101 Arbitrary units. In series [5], the “Stability (Arbitrary units) Human 6 h” value is recorded as 110 Arbitrary units. Also, the “Stability (Arbitrary units) Human 24 h” value in series [5] (human plasma, 24 h) is recorded as 116 Arbitrary units. Also, the “Stability (Arbitrary units) Cath D 4 h” value in series [6] is listed as 120 Arbitrary units.

Values taken from patent US7629318B2, “Immunosuppressant compounds, methods and uses related thereto” (priority 2002, dated 2009).
